target: D2 receptor (Homo sapiens, UniProt P14416); test: [3H]Thymidine uptake assay for D2 intrinsic activity; format: cell-based; design: Emax: dose or concentration left out as unconfirmed; settings: Table 1; test compound 1 μM; 1 μM Quinpirole = 100% intrinsic activity
Sequence (P14416 whole entry): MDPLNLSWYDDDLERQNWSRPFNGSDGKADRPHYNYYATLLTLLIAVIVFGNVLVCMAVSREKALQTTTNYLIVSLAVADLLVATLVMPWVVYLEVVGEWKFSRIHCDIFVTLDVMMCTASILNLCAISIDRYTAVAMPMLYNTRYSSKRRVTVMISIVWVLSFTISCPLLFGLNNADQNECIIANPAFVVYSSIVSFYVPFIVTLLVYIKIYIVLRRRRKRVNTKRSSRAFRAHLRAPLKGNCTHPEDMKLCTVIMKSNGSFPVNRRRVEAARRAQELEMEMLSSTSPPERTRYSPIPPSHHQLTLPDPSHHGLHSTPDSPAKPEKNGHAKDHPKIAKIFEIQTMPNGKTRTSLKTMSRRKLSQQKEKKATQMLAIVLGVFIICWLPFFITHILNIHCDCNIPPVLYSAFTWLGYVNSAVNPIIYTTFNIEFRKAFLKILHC

Compared with `CC(C)Oc1ccccc1N1CCN(CCCCOc2ncc3ccc(=O)[nH]c3n2)CC1` [Example H2, 2-{4-[4-(2-Isopropoxy-phenyl)-piperazin-1-yl]-butoxy}-8H-pyrido[2,3-d]pyrimidin-7-one], `O=c1ccc2cnc(OCCCCN3CCN(c4cccc5ccccc45)CC3)nc2[nH]1` [Example H4, 2-[4-(4-Naphthalen-1-yl-piperazin-1-yl)-butoxy]-8H-pyrido[2,3-d]pyrimidin-7-one] is higher in Emax at 1 µM: 22% for the first, 38% for the second.

Going from `O=c1ccc2cnc(OCCCCN3CCN(c4cccc5c4CCC5)CC3)nc2[nH]1` [Example H3, 2-[4-(4-Indan-4-yl-piperazin-1-yl)-butoxy]-8H-pyrido[2,3-d]pyrimidin-7-one] to `O=C1CCc2cnc(OCCCCN3CCN(c4cccc5c4CCC5)CC3)cc2N1` [Example I5, 7-[4-(4-Indan-4-yl-piperazin-1-yl)-butoxy]-3,4-dihydro-1H-[1,6]naphthyridin-2-one], the Emax at 1 µM falls from 25% to 23%.

`Cc1nc(OCCCCN2CCN(c3cccc4ccccc34)CC2)nc2[nH]c(=O)c(F)cc12` [Example H5, 6-Fluoro-4-methyl-2-[4-(4-naphthalen-1-yl-piperazin-1-yl)-butoxy]-8H-pyrido[2,3-d]pyrimidin-7-one] and `Cc1nc(OCCCCN2CCN(c3cccc4ccccc34)CC2)nc2[nH]c(=O)ccc12` [Example H12, 4-Methyl-2-[4-(4-naphthalen-1-yl-piperazin-1-yl)-butoxy]-8H-pyrido[2,3-d]pyrimidin-7-one] are the same in Emax at 1 µM: 34% for the first, 34% for the second.

First: Cc1nc(OCCCCN2CCN(c3cccc(C(C)C)n3)CC2)nc2[nH]c(=O)ccc12 [Example H6, 2-{4-[4-(6-Isopropyl-pyridin-2-yl)-piperazin-1-yl]-butoxy}-4-methyl-8H-pyrido[2,3-d]pyrimidin-7-one]
Second: CCc1cccc(N2CCN(CCCCOc3nc(C)c4ccc(=O)[nH]c4n3)CC2)n1 [Example H7, 2-{4-[4-(6-Ethyl-pyridin-2-yl)-piperazin-1-yl]-butoxy}-4-methyl-8H-pyrido[2,3-d]pyrimidin-7-one]
The Emax at 1 µM of the first is lower: 42% for the first, 46% for the second.

Compared with `Cc1nc(OCCCCN2CCN(c3cccc4ccc(F)cc34)CC2)nc2[nH]c(=O)ccc12` [Example H10, 2-{4-[4-(7-Fluoro-naphthalen-1-yl)-piperazin-1-yl]-butoxy}-4-methyl-8H-pyrido[2,3-d]pyrimidin-7-one], `COc1ccc2cccc(N3CCN(CCCCOc4nc(C)c5ccc(=O)[nH]c5n4)CC3)c2c1` [Example H11, 2-{4-[4-(7-Methoxy-naphthalen-1-yl)-piperazin-1-yl]-butoxy}-4-methyl-8H-pyrido[2,3-d]pyrimidin-7-one] is lower in Emax at 1 µM: 44% for the first, 23% for the second.

Compared with `Cc1nc(OCCCCN2CCN(c3cccc4ccc(F)cc34)CC2)nc2c1ccc(=O)n2C` [Example H13, 2-{4-[4-(7-Fluoro-naphthalen-1-yl)-piperazin-1-yl]-butoxy}-4,8-dimethyl-8H-pyrido[2,3-d]pyrimidin-7-one], `COc1ccc2cccc(N3CCN(CCCCOc4nc(C)c5ccc(=O)n(C)c5n4)CC3)c2c1` [Example H14, 2-{4-[4-(7-Methoxy-naphthalen-1-yl)-piperazin-1-yl]-butoxy}-4,8-dimethyl-8H-pyrido[2,3-d]pyrimidin-7-one] is lower in Emax at 1 µM: 36% for the first, 33% for the second.

Compared with `O=C1CCc2cnc(CCCCCN3CCN(c4cccc(Cl)c4Cl)CC3)cc2N1` [Example I1, 7-{5-[4-(2,3-Dichloro-phenyl)-piperazin-1-yl]-pentyl}-3,4-dihydro-1H-[1,6]naphthyridin-2-one], `O=C1CCc2cnc(OCCCCN3CCN(c4cccc(Cl)c4Cl)CC3)c(Br)c2N1` [Example I8, 8-Bromo-7-{4-[4-(2,3-dichloro-phenyl)-piperazin-1-yl]-butoxy}-3,4-dihydro-1H-[1,6]naphthyridin-2-one] is higher in Emax at 1 µM: 17% for the first, 25% for the second.

Compared with `O=C1CCc2cnc(OCCCCN3CCN(c4cccc5c4CCCC5)CC3)cc2N1` [Example I2, 7-{4-[4-(5,6,7,8-Tetrahydro-naphthalen-1-yl)-piperazin-1-yl]-butoxy}-3,4-dihydro-1H-[1,6]naphthyridin-2-one], `O=C1CCc2cnc(OCCCCN3CCN(c4cccc5ccccc45)CC3)cc2N1` [Example I3, 7-[4-(4-Naphthalen-1-yl-piperazin-1-yl)-butoxy]-3,4-dihydro-1H-[1,6]naphthyridin-2-one] is lower in Emax at 1 µM: 37% for the first, 33% for the second.

`O=C1CCc2cnc(OCCCCN3CCN(c4cccc5ccccc45)CC3)c(Br)c2N1` [Example I7, 8-Bromo-7-[4-(4-naphthalen-1-yl-piperazin-1-yl)-butoxy]-3,4-dihydro-1H-[1,6]naphthyridin-2-one] gave an Emax at 1 µM of 37%.

same assay, conditions: Table 2; test compound 1 μM; 1 μM Quinpirole = 100% intrinsic activity

Compared with `O=c1ccc2cnc(OCCCCN3CCN(c4cccc5c4OCCCO5)CC3)nc2[nH]1` [Example G5′, 2-{4-[4-(3,4-Dihydro-2H-benzo[b][1,4]dioxepin-6-yl)-piperazin-1-yl]-butoxy}-8H-pyrido[2,3-d]pyrimidin-7-one], `Cc1nc(OCCCCN2CCN(c3cccc4c3OCCO4)CC2)nc2[nH]c(=O)ccc12` [Example G10′, 2-{4-[4-(2,3-Dihydro-benzo[1,4]dioxin-5-yl)-piperazin-1-yl]-butoxy}-4-methyl-8H-pyrido[2,3-d]pyrimidin-7-one] is higher in Emax at 1 µM: 7% for the first, 18% for the second.

Compared with `CC1(C)CCc2cccc(N3CCN(CCCCOc4ncc5ccc(=O)[nH]c5n4)CC3)c2O1` [Example G6′, 2-{4-[4-(2,2-Dimethyl-chroman-8-yl)-piperazin-1-yl]-butoxy}-8H-pyrido[2,3-d]pyrimidin-7-one], `CC1(C)Cc2cccc(N3CCN(CCCCOc4ncc5ccc(=O)[nH]c5n4)CC3)c2O1` [Example G8′, 2-{4-[4-(2,2-Dimethyl-2,3-dihydro-benzofuran-7-yl)-piperazin-1-yl]-butoxy}-8H-pyrido[2,3-d]pyrimidin-7-one] is higher in Emax at 1 µM: 17% for the first, 32% for the second.

Going from `O=c1ccc2cnc(OCCCCN3CCN(c4cccc5c4OC(F)(F)O5)CC3)nc2[nH]1` [Example G7′, 2-{4-[4-(2,2-Difluoro-benzo[1,3]dioxol-4-yl)-piperazin-1-yl]-butoxy}-8H-pyrido[2,3-d]pyrimidin-7-one] to `O=c1ccc2cnc(OCCCCN3CCN(c4cccc5c4OC(F)(F)O5)CC3)cc2[nH]1` [Example H9′, 7-{4-[4-(2,2-Difluoro-benzo[1,3]dioxol-4-yl)-piperazin-1-yl]-butoxy}-1H-[1,6]naphthyridin-2-one], the Emax at 1 µM falls from 38% to 31%.

Going from `Cc1ccc2cccc(N3CCN(CCCCOc4ncc5ccc(=O)[nH]c5n4)CC3)c2n1` [Example G9′, 2-{4-[4-(2-Methyl-quinolin-8-yl)-piperazin-1-yl]-butoxy}-8H-pyrido[2,3-d]pyrimidin-7-one] to `Cc1nc(OCCCCN2CCN(c3cccc4cccnc34)CC2)nc2[nH]c(=O)ccc12` [Example G15′, 4-Methyl-2-[4-(4-quinolin-8-yl-piperazin-1-yl)-butoxy]-8H-pyrido[2,3-d]pyrimidin-7-one], the Emax at 1 µM rises from 21% to 41%.

Compared with `Cc1nc(OCCCCN2CCN(c3cccc4c3OCC4)CC2)nc2[nH]c(=O)ccc12` [Example G11′, 2-{4-[4-(2,3-Dihydro-benzofuran-7-yl)-piperazin-1-yl]-butoxy}-4-methyl-8H-pyrido[2,3-d]pyrimidin-7-one], `Cc1nc(OCCCCN2CCN(c3cccc4c3NC(=O)CC4)CC2)nc2[nH]c(=O)ccc12` [Example G14′, 4-Methyl-2-{4-[4-(2-oxo-1,2,3,4-tetrahydro-quinolin-8-yl)-piperazin-1-yl]-butoxy}-8H-pyrido[2,3-d]pyrimidin-7-one] is higher in Emax at 1 µM: 39% for the first, 44% for the second.

First: Cc1nc(OCCCCN2CCN(c3cccc4ccoc34)CC2)nc2[nH]c(=O)ccc12 [Example G12′, 2-[4-(4-Benzofuran-7-yl-piperazin-1-yl)-butoxy]-4-methyl-8H-pyrido[2,3-d]pyrimidin-7-one]
Second: O=c1ccc2cnc(OCCCCN3CCN(c4cccc5c4OCC5)CC3)cc2[nH]1 [Example H6′, 7-{4-[4-(2,3-Dihydro-benzofuran-7-yl)-piperazin-1-yl]-butoxy}-1H-[1,6]naphthyridin-2-one]
The Emax at 1 µM of the first is higher: 36% for the first, 21% for the second.

Compared with `O=C1CCc2cnc(OCCCCN3CCN(c4cccc5c4OCCC5)CC3)cc2N1` [Example H1′, 7-[4-(4-Chroman-8-yl-piperazin-1-yl)-butoxy]-3,4-dihydro-1H-[1,6]naphthyridin-2-one], `O=C1CCc2cnc(OCCCCN3CCN(c4cccc5c4OCC5)CC3)cc2N1` [Example H2′, 7-{4-[4-(2,3-Dihydro-benzofuran-7-yl)-piperazin-1-yl]-butoxy}-3,4-dihydro-1H-[1,6]naphthyridin-2-one] is lower in Emax at 1 µM: 22% for the first, 15% for the second.

First: O=C1CCc2cnc(OCCCCN3CCN(c4cccc5c4OC(F)(F)C(F)(F)O5)CC3)cc2N1 [Example H3′, 7-{4-[4-(2,2,3,3-Tetrafluoro-2,3-dihydro-benzo[1,4]dioxin-5-yl)-piperazin-1-yl]-butoxy}-3,4-dihydro-1H-[1,6]naphthyridin-2-one]
Second: O=C1CCc2cnc(OCCCCN3CCN(c4cccc5c4OC(F)(F)O5)CC3)cc2N1 [Example H4′, 7-{4-[4-(2,2-Difluoro-benzo[1,3]dioxol-4-yl)-piperazin-1-yl]-butoxy}-3,4-dihydro-1H-[1,6]naphthyridin-2-one]
The Emax at 1 µM of the first is higher: 22% for the first, 21% for the second.

Going from `O=C1CCc2cnc(OCCCCN3CCN(c4cccc5c4OCCO5)CC3)cc2N1` [Example H5′, 7-{4-[4-(2,3-Dihydro-benzo[1,4]dioxin-5-yl)-piperazin-1-yl]-butoxy}-3,4-dihydro-1H-[1,6]naphthyridin-2-one] to `O=c1ccc2cnc(OCCCCN3CCN(c4cccc5c4OCCO5)CC3)cc2[nH]1` [Example H7′, 7-{4-[4-(2,3-Dihydro-benzo[1,4]dioxin-5-yl)-piperazin-1-yl]-butoxy}-1H-[1,6]naphthyridin-2-one], the Emax at 1 µM rises from 14% to 17%.

For `O=c1ccc2cnc(OCCCCN3CCN(c4cccc5c4OCCC5)CC3)cc2[nH]1` [Example H8′, 7-[4-(4-Chroman-8-yl-piperazin-1-yl)-butoxy]-1H-[1,6]naphthyridin-2-one], the Emax at 1 µM was 32%.

same assay, conditions: read-out: D2 Intrinsic Activity (%)

For `O=C1CCc2cnc(OCCCCN3CCN(c4cccc5ccc(F)cc45)CC3)cc2N1` [Example I6, 7-{4-[4-(7-Fluoro-naphthalen-1-yl)-piperazin-1-yl]-butoxy}-3,4-dihydro-1H-[1,6]naphthyridin-2-one], the Emax was 24%.

Reference: patent US7160888B2, “[1,8]naphthyridin-2-ones and related compounds for the treatment of schizophrenia” (Warner Lambert Company LLC, priority 2003, dated 2007)
